From US6653529B2, “Use of the maize X112 mutant ahas 2 gene and imidazolinone herbicides for selection of transgenic monocots, maize, rice and wheat plants resistant to the imidazolinone herbicides” (BASF Aktiengesellschaft, priority 2000, dated 2003)

Legend:
Assay type in all cases: in vivo
[1] = test system: untransformed Nortai (Nt) rice plants; experiment: Greenhouse spray test of rice with PURSUIT imazethapyr (pre- and post-emergence); conditions: for No. panicles/plant Mean / No. tillers/plant Mean / Plant height Mean / Yield % 0× / Yield Mean: Nt
[2] = test system: T2 seeds of transgenic rice (T0 plants No. 26 and 29); experiment: Seed germination test on imazethapyr; conditions: 5 μM imazethapyr, 1 month treatment
Procedure: (§1) Three tests were performed to evaluate herbicide resistance of T2 progeny of transgenic rice. T2 progeny were first evaluated by a seed germination test followed by the greenhouse spray test and PCR analysis. As a prelude to testing the transgenic plants, an experiment was conducted to germinate untransformed rice seeds at imazethapyr concentrations ranging from 0.1 to 10 μM. […] The greenhouse spray test and PCR analysis were used to further confirm the results of the seed germination test with consistent identification of lines as resistant homozygous, susceptible homozygous or segregating hemizygous.
(§2) T2 seeds harvested from individual T1 plants were sterilized in 50% Clorox® bleach (2.3% sodium hyperchlorite) for 30 min followed by a thorough rinse with autoclaved water and pre-germinated in water for 2-3 days. Thirty to 35 pre-germinated seeds were transferred to the surface of folded paper towels placed perpendicular to the bottom of a Magenta box (Sigma, St. Louis, Mo.) to which 20 ml of H2O containing 5 μM imazethapyr (AC263,499, tech grade) was added. The seedlings were grown under 12 hr light at 26° C. for about a month. Seedlings that survived the imazethapyr treatment were scored as resistant and those that died as susceptible. 5.0 μM imazethapyr, equivalent to 5 times the threshold, was used for subsequent seed germination tests of the T2 generation. T2 seeds harvested from 16 T1 lines derived from T0 plant No. 26 and those from 15 T1 lines derived from T0 plant No. 29 were screened in the seed germination tests.

[3] = test system: untransformed rice seeds; experiment: Seed germination test on imazethapyr
Procedure: as §1, §2

[4] = test system: T1 corn plants of 1B1 (self and B73×1B1); experiment: Spray test of T1 progeny of transgenic corn plant 1B1; conditions: 4× (250 ai g/ha) at 3-leaf stage; 6 self and 8 B73×1B1 T1 plants
Procedure: Transgenic corn plants were evaluated in the greenhouse for resistant levels to various imidazolinone herbicides and inheritance of the transgene. For corn, our protocol involved self- or cross-pollinating the transgenic plants for 2 to 3 generations and spraying T1 progeny plants to identify the resistant vs. susceptible plants. Detailed analysis for levels of herbicide resistance and the inheritance pattern. Identification of lines homozygous for the transgene is carried out in T2 generation with self-pollination and cross-pollination derived progeny plants. […] B73 and Mo17 lines were obtained USDA/ARS and Crop Sciences, UIUC, Urbana, Ill. 61801-4798. T1 plants were treated with 4×PURSUIT® imazethapyr (250 ai g/ha) at 3-leaf stage and rated as either resistant or susceptible to the herbicide. A total of 6 self and 8 B73×1B1 T1 plants were sprayed and all survived the herbicide treatments.

[5] = post-emergence, Rate 63 (g ai/ha)
[6] = post-emergence, Rate 125 (g ai/ha)
[7] = post-emergence, Rate 250 (g ai/ha)

CCc1cnc(C2=NC(C)(C(C)C)C(=O)N2)c(C(=O)O)c1 (centres unmarked) [PURSUIT ®, imazethapyr]
reduction in plant height ([1]; Nortai, pre-emergence, 63 g/ha): about 20%
reduction in yield ([1]; Nortai, pre-emergence, 63 g/ha): ~40%
No. panicles/plant Mean [1, 5]: 15.7
No. tillers/plant Mean [1, 5]: 20.0
Plant height Mean [1, 5]: 117.3 cm
Yield % 0× [1, 5]: 99 % 0×
Yield Mean [1, 5]: 227.0 g/5 plants
No. panicles/plant Mean [1, 6]: 13.9
No. tillers/plant Mean [1, 6]: 13.5
Plant height Mean [1, 6]: 94.5 cm
Yield % 0× [1, 6]: 52 % 0×
Yield Mean [1, 6]: 120.0 g/5 plants
No. panicles/plant Mean [1, 7]: 0
No. tillers/plant Mean [1, 7]: 0
Plant height Mean [1, 7]: 0 cm
Yield % 0× [1, 7]: 0 % 0×
Yield Mean [1, 7]: 0 g/5 plants
No. panicles/plant Mean ([1]; pre-emergence, 63 g/ha): 5.7
No. tillers/plant Mean ([1]; pre-emergence, 63 g/ha): 6.5
Plant height Mean ([1]; pre-emergence, 63 g/ha): 98.0 cm
Yield % 0× ([1]; pre-emergence, 63 g/ha): 56 % 0×
Yield Mean ([1]; pre-emergence, 63 g/ha): 110.7 g/5 plants
No. panicles/plant Mean ([1]; pre-emergence, 125 g/ha): 0
No. tillers/plant Mean ([1]; pre-emergence, 125 g/ha): 0
Plant height Mean ([1]; pre-emergence, 125 g/ha): 0 cm
Yield % 0× ([1]; pre-emergence, 125 g/ha): 0 % 0×
Yield Mean ([1]; pre-emergence, 125 g/ha): 0 g/5 plants
No. panicles/plant Mean ([1]; pre-emergence, 250 g/ha): 0
No. tillers/plant Mean ([1]; pre-emergence, 250 g/ha): 0
Plant height Mean ([1]; pre-emergence, 250 g/ha): 0 cm
Yield % 0× ([1]; pre-emergence, 250 g/ha): 0 % 0×
Yield Mean ([1]; pre-emergence, 250 g/ha): 0 g/5 plants
fate of control plants ([1]; post-emergence, 250 g ai/ha): killed all plants
fate of control (Nortai) plants ([1]; pre-emergence, 125 and 250 g/ha): completely killed
fate of resistant transgenic plants [2]: survived and continued to grow
fate of control seeds ([3]; 5 μM imazethapyr, 1 month treatment): all control seeds died
concentration at which untransformed seeds were completely inhibited ([3]; germination at 0.1 to 10 μM): 1 µM
survival of T1 plants [4]: all survived
